The nature of this series: gradient 5% acetonitrile 3 min, to 50% in 2 min, to 85% in 15 min, held 3 min, 100 µL/min. The following applies: column: Zorbax Extend-C18 2.1 x 50 mm; eluents: water / acetonitrile, 0.1% formic acid. In outline: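 Standards, all pure, were combined into mixtures of ~100 molecules and run at 100 μL/min on a Zorbax Extend-C18 column (2.1 × 50 mm, 1.8 μm) with water and acetonitrile, each containing 0.1% formic acid. A coupled quadrupole time-of-flight mass spectrometer operated in positive and negative ionization mode. Retention time values come from computationally picked adduct peaks, each inspected manually.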
Compound `CCn1cnc2c1CN(S(=O)(=O)c1cccc(C#N)c1)CC2` came in with an RP-LC retention time of 590 s.

For `COC(=O)C(C)(N)Cc1ccc(O)cc1` (centres undefined), the RP-LC retention time turned out to be 573 s. In the case of `Cc1nc(CC(=O)Nc2ccc(F)cc2C)cs1` it was 737 s. With `CCOc1ccccc1NC(=O)N1CC(n2cnnc2-c2ccccc2)C1` the figure was 722 s; with `COc1ccc2c(C)cc(C)nc2n1`, 595 s; with `COCCN(CCOC)c1nc(-c2ccc([N+](=O)[O-])cc2)nc2ccccc12`, 849 s. In the case of `CCCCS(=O)(=O)N1CCc2c(c(-c3nnc(-c4ccc(F)cc4)o3)nn2C)C1` it was 893 s. Compound `Cc1nc2cccnc2n1CCN1CCN(C(=O)Nc2ccc(F)cc2F)CC1` had an RP-LC retention time of 585 s. With `O=C(NCc1nc(-c2ccc(-c3csc(-c4ccccc4)n3)cc2)no1)c1ccco1` the figure was 1090 s. In the case of `CCn1cc(-c2nc(C(=O)Nc3ccc(C)cc3)cs2)c2cccnc21` it was 1160 s; in that of `CCn1c(=O)c(N2CCC(C(=O)NCCc3c[nH]c4ccc(C)cc34)CC2)nc2cccnc21`, 984 s; in that of `Cc1cc(C(=O)NCc2ccc(Cl)cc2)n(-c2ccccc2)n1`, 878 s. In the case of `CCn1c(N2CCCC(C(=O)NCCN3CCN(c4ccccc4)CC3)C2)cc(=O)n(C)c1=O` (centres undefined) it was 638 s; in that of `CCOc1cc(C(=O)Nc2c(-c3ccccc3)nc3cc(C)ccn23)cc(OCC)c1OCC`, 775 s. As for `O=C(Nc1cccc(Cl)c1)Nc1ccc2nncn2c1`, the RP-LC retention time was 735 s. In turn, `CN1C(=O)c2cc(S(=O)(=O)NC3CCCCC3)ccc2Oc2cccnc21` had an RP-LC retention time of 929 s. Consider `CCOCCCNC(=O)C1CCN(C2=NS(=O)(=O)C(c3ccc(Cl)cc3)=C2C)CC1`, for which the RP-LC retention time was 780 s. In the case of `Cc1cccc(NC(=O)C2CCN(S(=O)(=O)c3cc(-c4noc(C)n4)cs3)CC2)n1` it was 768 s. With `Cc1ccc(CNC(=O)Cn2cnc3c(sc4nc(-c5ccccc5)ccc43)c2=O)cc1` the figure was 880 s; with `Cc1ccc(Cn2cccc2C(=O)C(=O)NCc2ccco2)cc1C`, 1070 s; with `CC(C)NC(=O)Cn1nc2c3cc(-c4ccc(F)cc4)nn3ccn2c1=O`, 785 s.

Turning to `Cc1ccc(S(=O)(=O)N2CCc3nc[nH]c3C2)cc1C`, the RP-LC retention time is 611 s. With `O=C(CSc1nc2ccccc2s1)N1CCN(C(=O)C2CC2c2ccccc2)CC1` (centres undefined) the figure was 867 s; with `CCOC(=O)c1nc(NCC2CCN(Cc3ccccc3F)CC2)c2ccccc2n1`, 598 s; with `O=C(Nc1cccc(Cl)c1)Nc1cnn(-c2ncncc2N2CCOCC2)c1`, 735 s. Take `COC(=O)c1c(-c2ccccc2)noc1NCc1ccccc1OC`: the RP-LC retention time was found to be 1100 s. With `Cc1sc(-c2noc(C3CCC3)n2)cc1S(=O)(=O)N1CCC(C(=O)NCC2CCCO2)CC1` (centres undefined) the figure was 937 s; with `CCOC(=O)O[C@]1(C(=O)OCCl)CC[C@H]2[C@@H]3CCC4=CC(=O)C=C[C@]4(C)[C@H]3[C@@H](O)C[C@@]21C`, 1150 s. For the compound `Cc1cc(C(=O)NCC2CCN(C(=O)Oc3ccccc3)CC2)c(C)o1`, the RP-LC retention time was 829 s. With `Cc1cc(NCCOCCO)n2nc(-c3ccc(Cl)cc3)c(C)c2n1`, the RP-LC retention time is 644 s. `O=C(Nc1ccc2c(c1)OCO2)C1CCCN(S(=O)(=O)c2c[nH]c(C(=O)N3CCCC3)c2)C1` (centres undefined) gave an RP-LC retention time of 747 s. With `CC(C)CCN1CCC(C2CCN(C(=O)c3ccncc3)C2)CC1` (centres undefined) the figure was 556 s; with `CCCCOc1ccc(C(=O)N(Cc2ccc(Br)o2)C2CCS(=O)(=O)C2)cc1` (centres undefined), 1090 s.

As to `CCOC(=O)Cn1c(=O)c2c(nc3n2CC(C)CN3c2ccc(Br)cc2)n(C)c1=O` (centres undefined), the RP-LC retention time turned out to be 1010 s. In the case of `O=C(CN1C(=O)CCc2cc(Br)ccc21)Nc1ccc2c(c1)OCCO2` it was 912 s. As for `Cn1nc(-c2nnc(-c3ccc(F)cc3)o2)c2c1CCN(S(=O)(=O)c1ccc(C#N)cc1)C2`, the RP-LC retention time was determined as 894 s. With `COc1ccc(-c2noc(C3CCCN3C(=O)c3ccc(OC)nc3)n2)cc1` (centres undefined) the figure was 879 s. With `O=C(Nc1ccc2ncnc(N3CCCCC3)c2c1)c1cncc(Br)c1` the figure was 665 s. With `Cc1nc2cc(N3CCCC(C(=O)N4CCCCCC4)C3)cnc2nc1C` (centres undefined) the figure was 653 s; with `COCc1cc(=O)n(CC(=O)Nc2ccc(OC)cc2)c(N2CCOCC2)n1`, 755 s. The compound `CCCN1C(=O)CCc2cc(NS(=O)(=O)c3cccs3)ccc21` yielded an RP-LC retention time of 797 s. In the case of `CCNc1cc(N2CCC(CCC(=O)NCC(C)C)CC2)ncn1` it was 602 s. With `CCN(CC)CCCNC(=O)C1c2cc(OC)c(OC)cc2C(=O)N2CCc3ccccc3C12` (centres undefined) the figure was 608 s.

The compound `O=C(Cn1nc2n(c1=O)CCCC2)Nc1cccc(F)c1` came in with an RP-LC retention time of 638 s. In the case of `CCN1CCn2c(nc3cc(C(=O)NCc4ccc5c(c4)OCO5)ccc32)C1=O` it was 660 s; in that of `CC1CCN(C(=O)c2ccc(CN3CCN(Cc4ccc(F)cc4)C(=O)C3=O)cc2)CC1`, 783 s; in that of `COc1ccc(-c2cn3cccnc3n2)cc1NS(=O)(=O)c1ccc(C)cc1`, 690 s.

`CCOc1ccc(N2C(=O)CC(c3ccc(OC)c(OC)c3)CC2=O)cc1` returned an RP-LC retention time of 841 s.

Compound `O=C(CN1CCCCCC1)NCC12CCCC=C1NC(=O)CC2` (centres undefined) had an RP-LC retention time of 567 s.

Regarding `O=C(CC1CCCC1)N1CCCC(c2nc(-c3ccccc3)n[nH]2)C1` (centres undefined), the RP-LC retention time was determined as 801 s. In the case of `Cc1cccc(N(C)C(=O)Cn2c(N3CCc4ccccc4C3)nc(C)cc2=O)c1` it was 850 s; in that of `COc1ccc(-c2noc(C3(NC(=O)c4cccc(Cl)c4)CCCCC3)n2)cc1`, 1250 s. `Cc1ccc(-n2nc(N3CCCC(C(=O)NCc4ccc(F)cc4)C3)ccc2=O)cc1Cl` (centres undefined) had an RP-LC retention time of 929 s. For the compound `COc1ccc(OC)c(NC(=O)Nc2cc(F)c3nc(N4CCOCC4)ccc3c2)c1`, the RP-LC retention time worked out at 863 s. In the case of `Cc1cc(C)cc(NC(=O)Cc2csc3nc(-c4ccccc4)cn23)c1` it was 880 s. With `CCCNC(=O)C1CCN(c2ccc(SCC(=O)Nc3cc(C)ccc3OC)nn2)CC1` the figure was 700 s. `Cc1ccccc1-n1c(=O)c2sccc2n(Cc2nc(-c3ccc(Cl)c(F)c3)no2)c1=O`: the RP-LC retention time worked out at 1120 s. In the case of `CC(=O)Nc1ccc(CCc2nc3ccc(C(=O)NC(C)Cc4ccco4)cc3[nH]2)cc1` (centres undefined), the RP-LC retention time is 626 s. In the case of `COc1ccc(-c2noc(C3CC(=O)N(c4cccc(Cl)c4)C3)n2)cc1OC` (centres undefined) it was 934 s.

`COc1ccc2nc(NC3=NCN(Cc4ccccc4)CN3)nc(C)c2c1` came in with an RP-LC retention time of 746 s.

For `O=C(c1nnc(-c2ccc(S(=O)(=O)N3CCCC3)cc2)o1)N1CCOCC1`, the RP-LC retention time is 739 s. With `CCc1sc(NC(=O)CCSc2ccccc2)nc1-c1ccccc1` the figure was 1210 s; with `Clc1ccc(C(Cn2ccnc2)OCc2c(Cl)cccc2Cl)c(Cl)c1` (centres undefined), 929 s; with `COc1ccc(S(=O)(=O)NCc2ccc3c(c2)CCN3C(=O)c2ccccc2)cc1`, 904 s. With `Cc1ccc(CNC(=O)N(C)CCc2noc(-c3ccc(F)cc3)n2)cc1` the figure was 915 s; with `CC1(C(=O)NCc2ccccc2)CN(S(C)(=O)=O)CC(=O)N1Cc1ccccc1Cl` (centres undefined), 778 s. Turning to `NC(=O)c1nnn(Cc2cccc([N+](=O)[O-])c2)c1N`, the RP-LC retention time came out at 616 s.

`COc1ccc(-c2nc(C)cc(C)c2CNS(=O)(=O)c2cccc(C#N)c2)cc1` had an RP-LC retention time of 640 s. For `COc1cccc(CNC(=O)NC2CCN(c3cc(C)cc(C)c3)C2=O)c1` (centres undefined), the RP-LC retention time amounted to 840 s.

The compound `Cc1ccc2nc(-c3c(F)cccc3Cl)c(Nc3ccccc3C)n2c1` had an RP-LC retention time of 777 s. With `Cc1ccc(N2CC(c3noc(-c4ccncc4)n3)CC2=O)cc1` (centres undefined) the figure was 798 s.

Compound `COc1cccc(C(=O)N2CCc3nc(CNC(=O)C4CCC4)n(C)c3C2)c1` yielded an RP-LC retention time of 555 s. With `COCCNC(=O)Cc1ccc(NS(=O)(=O)c2ccccc2Cl)cc1` the figure was 676 s; with `CC(=O)NCC(O)c1ccc([N+](=O)[O-])cc1` (centres undefined), 661 s. With `COc1ccc(Cc2nc3nccc(-c4ccsc4)n3n2)cc1` the figure was 897 s; with `Cn1nc(-c2nnc(-c3ccc(F)cc3)o2)c2c1CCN(S(=O)(=O)c1ccc(F)c(Cl)c1)C2`, 990 s; with `Cc1ccc(NC(=O)C2CCCN(S(=O)(=O)c3cn(C(C)C)cn3)C2)cc1F` (centres undefined), 847 s. `Cn1c(=O)c2cc(C(=O)NCc3ccc(Cl)cc3)sc2n(C)c1=O`: the RP-LC retention time was determined as 800 s. With `CN(C)CCN(C(=O)CN1C(=O)c2ccccc2C1=O)c1nc2ccc(Cl)cc2s1` the figure was 616 s.

Source of the values: the METLIN SMRT retention time set (Domingo-Almenara et al. 2019).
